Source: ChEMBL document CHEMBL2380212, “Synthesis, single crystal and antitumor activities of benzimidazole-quinazoline hybrids” (Bioorg Med Chem Lett, 2013)

Experiments:
[1] = n-Octanol-phosphate buffer partition coefficient, log P of the compound at pH 7.4 by shake flask method; assay type: physicochemical
BT-549 = assay: Cytotoxicity against human BT549 cells at 10 uM after 48 hrs by SRB assay; assay type: functional; conditions: BT-549, 48 h, read-out: GI
T47D = assay: Cytotoxicity against human T47D cells at 10 uM after 48 hrs by SRB assay; assay type: functional; conditions: read-out: GI
Hs-578T = assay: Cytotoxicity against human Hs578T cells at 10 uM after 48 hrs by SRB assay; assay type: functional; conditions: read-out: GI
UO-31 = assay: Cytotoxicity against human UO31 cells at 10 uM after 48 hrs by SRB assay; assay type: functional; conditions: UO-31, 48 h, read-out: GI
PC-3 = assay: Cytotoxicity against human PC3 cells at 10 uM after 48 hrs by SRB assay; assay type: functional; conditions: PC-3, 48 h, read-out: GI
TK-10 = assay: Cytotoxicity against human TK10 cells at 10 uM after 48 hrs by SRB assay; assay type: functional; conditions: TK-10, 48 h, read-out: GI
RXF 393 = assay: Cytotoxicity against human RXF393 cells at 10 uM after 48 hrs by SRB assay; assay type: functional; conditions: RXF 393, 48 h, read-out: GI
CAKI-1 = assay: Cytotoxicity against human Caki1 cells at 10 uM after 48 hrs by SRB assay; assay type: functional; conditions: CAKI-1, 48 h, read-out: GI
ACHN = assay: Cytotoxicity against human ACHN cells at 10 uM after 48 hrs by SRB assay; assay type: functional; conditions: read-out: GI
786-0 = assay: Cytotoxicity against human 786-0 cells at 10 uM after 48 hrs by SRB assay; assay type: functional; conditions: 786-0, 48 h, read-out: GI
SK-OV-3 = assay: Cytotoxicity against human SKOV3 cells at 10 uM after 48 hrs by SRB assay; assay type: functional; conditions: SK-OV-3, 48 h, read-out: GI
OVCAR-8 = assay: Cytotoxicity against human OVCAR8 cells at 10 uM after 48 hrs by SRB assay; assay type: functional; conditions: OVCAR-8, 48 h, read-out: GI
OVCAR-5 = assay: Cytotoxicity against human OVCAR5 cells at 10 uM after 48 hrs by SRB assay; assay type: functional; conditions: OVCAR-5, 48 h, read-out: GI
OVCAR-3 = assay: Cytotoxicity against human OVCAR3 cells at 10 uM after 48 hrs by SRB assay; assay type: functional; conditions: OVCAR-3, 48 h, read-out: GI
IGROV-1 = assay: Cytotoxicity against human IGROV1 cells at 10 uM after 48 hrs by SRB assay; assay type: functional; conditions: IGROV-1, 48 h, read-out: GI
UACC-62 = assay: Cytotoxicity against human UACC62 cells at 10 uM after 48 hrs by SRB assay; assay type: functional; conditions: UACC-62, 48 h, read-out: GI
UACC-257 = assay: Cytotoxicity against human UACC257 cells at 10 uM after 48 hrs by SRB assay; assay type: functional; conditions: UACC-257, 48 h, read-out: GI
SK-MEL-28 = assay: Cytotoxicity against human SK-MEL-28 cells at 10 uM after 48 hrs by SRB assay; assay type: functional; conditions: SK-MEL-28, 48 h, read-out: GI
SK-MEL-5 = assay: Cytotoxicity against human SK-MEL-5 cells at 10 uM after 48 hrs by SRB assay; assay type: functional; conditions: SK-MEL-5, 48 h, read-out: GI
SK-MEL-2 = assay: Cytotoxicity against human SK-MEL-2 cells at 10 uM after 48 hrs by SRB assay; assay type: functional; conditions: SK-MEL-2, 48 h, read-out: GI
M14 = assay: Cytotoxicity against human M14 cells at 10 uM after 48 hrs by SRB assay; assay type: functional; conditions: M14, 48 h, read-out: GI
U-251 = assay: Cytotoxicity against human U251 cells at 10 uM after 48 hrs by SRB assay; assay type: functional; conditions: U-251, 48 h, read-out: GI
SNB-75 = assay: Cytotoxicity against human SNB75 cells at 10 uM after 48 hrs by SRB assay; assay type: functional; conditions: SNB-75, 48 h, read-out: GI
SF-295 = assay: Cytotoxicity against human SF295 cells at 10 uM after 48 hrs by SRB assay; assay type: functional; conditions: SF-295, 48 h, read-out: GI
SW-620 = assay: Cytotoxicity against human SW620 cells at 10 uM after 48 hrs by SRB assay; assay type: functional; conditions: SW-620, 48 h, read-out: GI
KM12 = assay: Cytotoxicity against human KM12 cells at 10 uM after 48 hrs by SRB assay; assay type: functional; conditions: KM12, 48 h, read-out: GI
HT-29 = assay: Cytotoxicity against human HT-29 cells at 10 uM after 48 hrs by SRB assay; assay type: functional; conditions: HT-29, 48 h, read-out: GI
HCT-15 = assay: Cytotoxicity against human HCT15 cells at 10 uM after 48 hrs by SRB assay; assay type: functional; conditions: HCT-15, 48 h, read-out: GI
HCT-116 = assay: Cytotoxicity against human HCT116 cells at 10 uM after 48 hrs by SRB assay; assay type: functional; conditions: HCT-116, 48 h, read-out: GI
HCC 2998 = assay: Cytotoxicity against human HCC2998 cells at 10 uM after 48 hrs by SRB assay; assay type: functional; conditions: HCC 2998, 48 h, read-out: GI
COLO 205 = assay: Cytotoxicity against human COLO205 cells at 10 uM after 48 hrs by SRB assay; assay type: functional; conditions: COLO 205, 48 h, read-out: GI
NCI-H460 = assay: Cytotoxicity against human NCI-H460 cells at 10 uM after 48 hrs by SRB assay; assay type: functional; conditions: NCI-H460, 48 h, read-out: GI
NCI-H322M = assay: Cytotoxicity against human NCI-H322M cells at 10 uM after 48 hrs by SRB assay; assay type: functional; conditions: read-out: GI
NCI-H23 = assay: Cytotoxicity against human NCI-H23 cells at 10 uM after 48 hrs by SRB assay; assay type: functional; conditions: NCI-H23, 48 h, read-out: GI
HOP-62 = assay: Cytotoxicity against human HOP62 cells at 10 uM after 48 hrs by SRB assay; assay type: functional; conditions: HOP-62, 48 h, read-out: GI
HOP-92 = assay: Cytotoxicity against human HOP92 cells at 10 uM after 48 hrs by SRB assay; assay type: functional; conditions: HOP-92, 48 h, read-out: GI
[2] = Cytotoxicity against human EKVX cells at 10 uM after 48 hrs by SRB assay; assay type: functional; conditions: read-out: GI
SR = assay: Cytotoxicity against human SR cells at 10 uM after 48 hrs by SRB assay; assay type: functional; conditions: read-out: GI
MOLT-4 = assay: Cytotoxicity against human MOLT4 cells at 10 uM after 48 hrs by SRB assay; assay type: functional; conditions: MOLT-4, 48 h, read-out: GI
RPMI-8226 = assay: Cytotoxicity against human RPMI8226 cells at 10 uM after 48 hrs by SRB assay; assay type: functional; conditions: RPMI-8226, 48 h, read-out: GI
HL-60(TB) = assay: Cytotoxicity against human HL-60(TB) cells at 10 uM after 48 hrs by SRB assay; assay type: functional; conditions: HL-60, 48 h, read-out: GI

SMILES: C=CCn1c(C)nc2cc(Nc3nc(N4CCOCC4)nc4ccccc34)ccc21
- logD [1]: 2.49
- inhibition of growth at 10 µM (BT-549): < 10%
- inhibition of growth at 10 µM (T47D): < 10%
- inhibition of growth at 10 µM (Hs-578T): < 10%
- inhibition of growth at 10 µM (UO-31): < 10%
- inhibition of growth at 10 µM (PC-3): 11.9%
- inhibition of growth at 10 µM (TK-10): < 10%
- inhibition of growth at 10 µM (RXF 393): < 10%
- inhibition of growth at 10 µM (CAKI-1): < 10%
- inhibition of growth at 10 µM (ACHN): < 10%
- inhibition of growth at 10 µM (786-0): < 10%
- inhibition of growth at 10 µM (SK-OV-3): < 10%
- inhibition of growth at 10 µM (OVCAR-8): < 10%
- inhibition of growth at 10 µM (OVCAR-5): < 10%
- inhibition of growth at 10 µM (OVCAR-3): < 10%
- inhibition of growth at 10 µM (IGROV-1): < 10%
- inhibition of growth at 10 µM (UACC-62): < 10%
- inhibition of growth at 10 µM (UACC-257): < 10%
- inhibition of growth at 10 µM (SK-MEL-28): < 10%
- inhibition of growth at 10 µM (SK-MEL-5): < 10%
- inhibition of growth at 10 µM (SK-MEL-2): < 10%
- inhibition of growth at 10 µM (M14): < 10%
- inhibition of growth at 10 µM (U-251): < 10%
- inhibition of growth at 10 µM (SNB-75): < 10%
- inhibition of growth at 10 µM (SF-295): < 10%
- inhibition of growth at 10 µM (SW-620): < 10%
- inhibition of growth at 10 µM (KM12): < 10%
- inhibition of growth at 10 µM (HT-29): < 10%
- inhibition of growth at 10 µM (HCT-15): < 10%
- inhibition of growth at 10 µM (HCT-116): < 10%
- inhibition of growth at 10 µM (HCC 2998): < 10%
- inhibition of growth at 10 µM (COLO 205): < 10%
- inhibition of growth at 10 µM (NCI-H460): < 10%
- inhibition of growth at 10 µM (NCI-H322M): < 10%
- inhibition of growth at 10 µM (NCI-H23): < 10%
- inhibition of growth at 10 µM (HOP-62): < 10%
- inhibition of growth at 10 µM (HOP-92): < 10%
- inhibition of growth at 10 µM [2]: < 10%
- inhibition of growth at 10 µM (SR): < 10%
- inhibition of growth at 10 µM (MOLT-4): < 10%
- inhibition of growth at 10 µM (RPMI-8226): 13.4%
- inhibition of growth at 10 µM (HL-60(TB)): 13.5%

SMILES: C=CCn1c(C)nc2cc(Nc3nc(Cl)nc4ccccc34)ccc21
- logD [1]: 1.17
- inhibition of growth at 10 µM (BT-549): < 10%
- inhibition of growth at 10 µM (T47D): 21.3%
- inhibition of growth at 10 µM (Hs-578T): < 10%
- inhibition of growth at 10 µM (UO-31): 10.3%
- inhibition of growth at 10 µM (PC-3): 19.5%
- inhibition of growth at 10 µM (TK-10): < 10%
- inhibition of growth at 10 µM (RXF 393): < 10%
- inhibition of growth at 10 µM (CAKI-1): 16.9%
- inhibition of growth at 10 µM (ACHN): < 10%
- inhibition of growth at 10 µM (786-0): < 10%
- inhibition of growth at 10 µM (SK-OV-3): < 10%
- inhibition of growth at 10 µM (OVCAR-8): < 10%
- inhibition of growth at 10 µM (OVCAR-5): < 10%
- inhibition of growth at 10 µM (OVCAR-3): < 10%
- inhibition of growth at 10 µM (IGROV-1): < 10%
- inhibition of growth at 10 µM (UACC-62): 10.2%
- inhibition of growth at 10 µM (UACC-257): < 10%
- inhibition of growth at 10 µM (SK-MEL-28): < 10%
- inhibition of growth at 10 µM (SK-MEL-5): < 10%
- inhibition of growth at 10 µM (SK-MEL-2): < 10%
- inhibition of growth at 10 µM (M14): < 10%
- inhibition of growth at 10 µM (U-251): < 10%
- inhibition of growth at 10 µM (SNB-75): < 10%
- inhibition of growth at 10 µM (SF-295): 10.3%
- inhibition of growth at 10 µM (SW-620): < 10%
- inhibition of growth at 10 µM (KM12): < 10%
- inhibition of growth at 10 µM (HT-29): < 10%
- inhibition of growth at 10 µM (HCT-15): < 10%
- inhibition of growth at 10 µM (HCT-116): < 10%
- inhibition of growth at 10 µM (HCC 2998): < 10%
- inhibition of growth at 10 µM (COLO 205): < 10%
- inhibition of growth at 10 µM (NCI-H460): < 10%
- inhibition of growth at 10 µM (NCI-H322M): < 10%
- inhibition of growth at 10 µM (NCI-H23): < 10%
- inhibition of growth at 10 µM (HOP-62): < 10%
- inhibition of growth at 10 µM (HOP-92): < 10%
- inhibition of growth at 10 µM [2]: 17.2%
- inhibition of growth at 10 µM (SR): < 10%
- inhibition of growth at 10 µM (MOLT-4): < 10%
- inhibition of growth at 10 µM (RPMI-8226): 22.3%
- inhibition of growth at 10 µM (HL-60(TB)): < 10%
